# Source: ChEMBL document CHEMBL3045375, “Synthesis, characterization and biological activity of some new carbostyril bearing 1H-pyrazole moiety” (2012)
# How the values were obtained:
# Format in all cases: functional
# Candida albicans = experiment: Antifungal activity against Candida albicans MTCC 227 after 48 hr by broth microdilution method
# Aspergillus fumigatus = experiment: Antifungal activity against Aspergillus fumigatus MTCC 3008 after 48 hr by broth microdilution method
# Escherichia coli = experiment: Antibacterial activity against Escherichia coli MTCC 443 after 24 hr by broth microdilution method; conditions: MTCC 443, 24 h
# Bacillus subtilis = experiment: Antibacterial activity against Bacillus subtilis MTCC 441 after 24 hr by broth microdilution method
# Streptococcus pneumoniae = experiment: Antibacterial activity against Streptococcus pneumoniae MTCC 1936 after 24 hr by broth microdilution method; conditions: MTCC 1936, 24 h
Compound,"MIC (Candida albicans; MTCC 227, 48 h)","MIC (Aspergillus fumigatus; MTCC 3008, 48 h)",MIC (Escherichia coli),"MIC (Bacillus subtilis; MTCC 441, 24 h)",MIC (Streptococcus pneumoniae),MIC (Candida albicans),MIC (Aspergillus fumigatus),MIC (Bacillus subtilis)
Cc1ccc(-c2nn(-c3ccccc3)cc2C2CC(=O)N(c3ccc(F)cc3)C3=C2C(=O)CC(C)(C)C3)cc1 (centres undefined),500 µg/mL,500 µg/mL,500 µg/mL,0.5 µg/mL,100 µg/mL,,,
NYSTATIN,,,,,,100 µg/mL,100 µg/mL,
CC1(C)CC(=O)C2=C(C1)N(c1ccc(F)cc1)C(=O)CC2c1cn(-c2ccccc2)nc1-c1ccc(F)cc1 (centres undefined),500 µg/mL,1000 µg/mL,150 µg/mL,0.5 µg/mL,500 µg/mL,,,
O=C1CCCC2=C1C(c1cn(-c3ccccc3)nc1-c1cccs1)CC(=O)N2c1ccc(F)cc1 (centres undefined),500 µg/mL,1000 µg/mL,100 µg/mL,0.25 µg/mL,200 µg/mL,,,
CC1(C)CC(=O)C2=C(C1)N(c1ccc(F)cc1)C(=O)CC2c1cn(-c2ccccc2)nc1-c1ccccc1 (centres undefined),500 µg/mL,500 µg/mL,500 µg/mL,0.2 µg/mL,150 µg/mL,,,
COC1=CC(=O)C[C@@H](C)[C@]12Oc1c(Cl)c(OC)cc(OC)c1C2=O [GRISEOFULVIN],500 µg/mL,100 µg/mL,,,,,,
GENTAMICIN,,,,,,,,0.001 µg/mL
O=C1CCCC2=C1C(c1cn(-c3ccccc3)nc1-c1ccc(F)cc1)CC(=O)N2c1ccc(F)cc1 (centres undefined),500 µg/mL,1000 µg/mL,250 µg/mL,0.1 µg/mL,200 µg/mL,,,
CC1(C)CC(=O)C2=C(C1)N(c1ccc(F)cc1)C(=O)CC2c1cn(-c2ccccc2)nc1-c1cccs1 (centres undefined),500 µg/mL,1000 µg/mL,200 µg/mL,0.25 µg/mL,500 µg/mL,,,
COc1ccc(-c2nn(-c3ccccc3)cc2C2CC(=O)N(c3ccc(F)cc3)C3=C2C(=O)CCC3)cc1 (centres undefined),1000 µg/mL,500 µg/mL,100 µg/mL,0.5 µg/mL,250 µg/mL,,,
Cc1ccc(-c2nn(-c3ccccc3)cc2C2CC(=O)N(c3ccc(F)cc3)C3=C2C(=O)CCC3)cc1 (centres undefined),1000 µg/mL,500 µg/mL,250 µg/mL,0.25 µg/mL,100 µg/mL,,,
O=C(O)c1cn(C2CC2)c2cc(N3CCNCC3)c(F)cc2c1=O [CIPROFLOXACIN],,,25 µg/mL,0.05 µg/mL,50 µg/mL,,,
O=C1CCCC2=C1C(c1cn(-c3ccccc3)nc1-c1ccccc1)CC(=O)N2c1ccc(F)cc1 (centres undefined),> 1000 µg/mL,> 1000 µg/mL,500 µg/mL,0.5 µg/mL,500 µg/mL,,,
O=C1CCCC2=C1C(c1cn(-c3ccccc3)nc1-c1ccc(Cl)cc1)CC(=O)N2c1ccc(F)cc1 (centres undefined),500 µg/mL,> 1000 µg/mL,100 µg/mL,0.25 µg/mL,250 µg/mL,,,
CC1(C)CC(=O)C2=C(C1)N(c1ccc(F)cc1)C(=O)CC2c1cn(-c2ccccc2)nc1-c1ccc(Cl)cc1 (centres undefined),1000 µg/mL,500 µg/mL,50 µg/mL,0.15 µg/mL,250 µg/mL,,,
O=C1CCCC2=C1C(c1cn(-c3ccccc3)nc1-c1ccc([N+](=O)[O-])cc1)CC(=O)N2c1ccc(F)cc1 (centres undefined),500 µg/mL,1000 µg/mL,62.5 µg/mL,0.2 µg/mL,100 µg/mL,,,
CC1(C)CC(=O)C2=C(C1)N(c1ccc(F)cc1)C(=O)CC2c1cn(-c2ccccc2)nc1-c1ccc(Br)cc1 (centres undefined),100 µg/mL,100 µg/mL,500 µg/mL,0.5 µg/mL,250 µg/mL,,,
O=C(N[C@H](CO)[C@H](O)c1ccc([N+](=O)[O-])cc1)C(Cl)Cl [CHLORAMPHENICOL],,,50 µg/mL,0.05 µg/mL,50 µg/mL,,,
CC1(C)S[C@@H]2[C@H](NC(=O)[C@H](N)c3ccccc3)C(=O)N2[C@H]1C(=O)O [AMPICILLIN],,,100 µg/mL,0.25 µg/mL,100 µg/mL,,,
COc1ccc(-c2nn(-c3ccccc3)cc2C2CC(=O)N(c3ccc(F)cc3)C3=C2C(=O)CC(C)(C)C3)cc1 (centres undefined),1000 µg/mL,1000 µg/mL,250 µg/mL,0.2 µg/mL,100 µg/mL,,,
CC1(C)CC(=O)C2=C(C1)N(c1ccc(F)cc1)C(=O)CC2c1cn(-c2ccccc2)nc1-c1ccc([N+](=O)[O-])cc1 (centres undefined),1000 µg/mL,1000 µg/mL,100 µg/mL,0.25 µg/mL,250 µg/mL,,,
O=C1CCCC2=C1C(c1cn(-c3ccccc3)nc1-c1ccc(Br)cc1)CC(=O)N2c1ccc(F)cc1 (centres undefined),500 µg/mL,> 1000 µg/mL,62.5 µg/mL,0.5 µg/mL,250 µg/mL,,,
